1 cell line from the supplement of paper PMC10307832 can be followed below.

Assay in all cases: relative viability (nuclei count vs DMSO), 5 days (fraction); higher = more cells survive
Compound in the test “Crizotinib + Foretinib”: C[C@@H](Oc1cc(-c2cnn(C3CCNCC3)c2)cnc1N)c1c(Cl)ccc(F)c1Cl [Crizotinib] + COc1cc2c(Oc3ccc(NC(=O)C4(C(=O)Nc5ccc(F)cc5)CC4)cc3F)ccnc2cc1OCCCN1CCOCC1 [Foretinib] (partner 0.25 µM)
The essentials:
(§1)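 After 5 days of treatment, lung cancer cells in 1536-well plates were fixed and stained in a single step (final 0.05% Triton X-100, 1% formaldehyde, 1 ug/ml Hoechst) and their nuclei counted on 4× images. Treatment had been applied by pin tool the day after seeding as one drug alone or as a fixed anchor-drug dose with five library-drug doses (not always all listed) in √10 steps. Relative viability is the nuclei count of treated wells divided by that of vehicle wells, and values are medians of duplicate plates.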

Compound in the test “Crizotinib + Pemetrexed”: C[C@@H](Oc1cc(-c2cnn(C3CCNCC3)c2)cnc1N)c1c(Cl)ccc(F)c1Cl [Crizotinib] + Nc1nc2[nH]cc(CCc3ccc(C(=O)N[C@@H](CCC(=O)O)C(=O)O)cc3)c2c(=O)[nH]1 [Pemetrexed] (partner 0.2 µM)
The essentials: as §1

Compound in the test “Olaparib + Lapatinib”: O=C(c1cc(Cc2n[nH]c(=O)c3ccccc23)ccc1F)N1CCN(C(=O)C2CC2)CC1 [Olaparib] + CS(=O)(=O)CCNCc1ccc(-c2ccc3ncnc(Nc4ccc(OCc5cccc(F)c5)c(Cl)c4)c3c2)o1 [Lapatinib] (partner 2 µM)
The essentials:
as §1

Compound in the test “Olaparib + Linsitinib”: O=C(c1cc(Cc2n[nH]c(=O)c3ccccc23)ccc1F)N1CCN(C(=O)C2CC2)CC1 [Olaparib] + C[C@]1(O)C[C@@H](c2nc(-c3ccc4ccc(-c5ccccc5)nc4c3)c3c(N)nccn32)C1 [Linsitinib] (partner 1 µM)
The gist of the method: as §1

For the cell line LC-2-ad, the relative viability worked out at 0.839 in the test with Crizotinib + Foretinib (first compound 0.01 µM); 0.994 with Crizotinib + Foretinib (first compound 0.03162 µM); 0.884 with Crizotinib + Foretinib (first compound 0.3162 µM); 0.877 in the test with Crizotinib + Foretinib (first compound 1 µM); 0.266 with Crizotinib + Pemetrexed (first compound 0.01 µM); 0.259 with Crizotinib + Pemetrexed (first compound 0.03162 µM). For the same cell line, the relative viability worked out at 0.276 in the test with Crizotinib + Pemetrexed (first compound 0.1 µM); 0.302 in the test with Crizotinib + Pemetrexed (first compound 1 µM); 1.08 with Olaparib + Lapatinib (first compound 0.08 µM); 0.89 in the test with Olaparib + Lapatinib (first compound 0.253 µM); 0.905 with Olaparib + Lapatinib (first compound 2.53 µM); 0.597 with Olaparib + Lapatinib (first compound 8 µM). Also, the relative viability amounted to 0.81 in the test with Olaparib + Linsitinib (first compound 0.08 µM), 0.754 with Olaparib + Linsitinib (first compound 0.253 µM), 0.787 in the test with Olaparib + Linsitinib (first compound 2.53 µM) and 0.633 in the test with Olaparib + Linsitinib (first compound 8 µM).
